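Following 48 hours of exposure in 96-well plates, responses at five concentrations were used to interpolate endpoints linearly. TGI: total growth inhibition.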
Assays:
Experiment in all cases: inhibition of tumour cell growth, NCI panel, 48 h
[1] = test system: U251 CNS
[2] = test system: HCC-2998 colon
[3] = test system: SR leukemia
[4] = test system: TK-10 renal
[5] = test system: SK-OV-3 ovarian
[6] = test system: MALME-3M melanoma
[7] = test system: DU-145 prostate
[8] = test system: MDA-MB-231 breast
[9] = test system: HS 578T breast
[10] = test system: HT29 colon
[11] = test system: SF-268 CNS
[12] = test system: A498 renal
[13] = test system: A549 NSCLC
[14] = test system: UACC-62 melanoma
[15] = test system: SK-MEL-2 melanoma
[16] = test system: MOLT-4 leukemia
[17] = test system: RPMI-8226 leukemia
[18] = test system: NCI-H23 lung
[19] = test system: OVCAR-3 ovarian
[20] = test system: EKVX NSCLC
[21] = test system: 786-0 renal
[22] = test system: HOP-62 NSCLC
[23] = test system: HCT-116 colon
[24] = test system: SW-620 colon
[25] = test system: OVCAR-8 ovarian
[26] = test system: OVCAR-4 ovarian
[27] = test system: RXF 393 renal
[28] = test system: HCT-15 colon
[29] = test system: KM12 colon
[30] = test system: M14 melanoma
[31] = test system: UACC-257 melanoma
[32] = test system: UO-31 renal
[33] = test system: MDA-MB-435
[34] = test system: SF-539 CNS
[35] = test system: OVCAR-5 ovarian
[36] = test system: COLO 205 colon
[37] = test system: BT-549 breast
[38] = test system: NCI-H460 lung
[39] = test system: PC-3 prostate
[40] = test system: SF-295 CNS
[41] = test system: T-47D breast
[42] = test system: MCF7 breast
[43] = test system: HL-60(TB) leukemia
[44] = test system: SN12C renal
[45] = test system: HOP-92 NSCLC
[46] = test system: SK-MEL-5 melanoma
[47] = test system: NCI/ADR-RES ovarian
[48] = test system: CAKI-1 renal
[49] = test system: IGROV1 ovarian
[50] = test system: NCI-H522 lung
[51] = test system: K-562 leukemia
[52] = test system: ACHN renal
[53] = test system: SNB-19 CNS
[54] = test system: CCRF-CEM leukemia
[55] = test system: LOX IMVI melanoma
[56] = test system: MDA-N
[57] = test system: SK-MEL-28 melanoma
[58] = test system: NCI-H226 lung
[59] = test system: SNB-75 CNS

CCOC(=O)N(C)CCC1CC=CC(=O)C1c1cccc(OC)c1OC (configuration not stated)
TGI [1]: 43 µM
TGI [2]: 25.8 µM
TGI [3]: 67.1 µM
TGI [4]: 65.3 µM
TGI [5]: > 100 µM
TGI [6]: 60.1 µM
TGI [7]: 44.4 µM
TGI [8]: > 100 µM
TGI [9]: > 100 µM
TGI [10]: 34.1 µM
TGI [11]: 60 µM
TGI [12]: > 100 µM
TGI [13]: 91 µM
TGI [14]: 32.5 µM
TGI [15]: 35 µM
TGI [16]: 64.5 µM
TGI [17]: 46.6 µM
TGI [18]: 36.3 µM
TGI [19]: 38.8 µM
TGI [20]: 89.8 µM
TGI [21]: 45.7 µM
TGI [22]: > 100 µM
TGI [23]: 27.6 µM
TGI [24]: > 100 µM
TGI [25]: > 100 µM
TGI [26]: > 100 µM
TGI [27]: 27.5 µM
TGI [28]: 31.1 µM
TGI [29]: 33.6 µM
TGI [30]: 55 µM
TGI [31]: 39.3 µM
TGI [32]: 35.9 µM
TGI [33]: 28.8 µM
TGI [34]: > 100 µM
TGI [35]: 46.7 µM
TGI [36]: 17.8 µM
TGI [37]: 34.3 µM
TGI [38]: 48.2 µM
TGI [39]: > 100 µM
TGI [40]: 98.8 µM
TGI [41]: 77.1 µM
TGI [42]: 56.6 µM
TGI [43]: 52.5 µM
TGI [44]: 39.7 µM
TGI [45]: > 100 µM
TGI [46]: 22 µM
TGI [47]: 80.1 µM
TGI [48]: 91.6 µM
TGI [49]: > 100 µM
TGI [50]: 27.5 µM
TGI [51]: > 100 µM
TGI [52]: > 100 µM
TGI [53]: 85.6 µM
TGI [54]: 35.7 µM
TGI [55]: > 100 µM
TGI [56]: 36.4 µM

CCCC[P+](CCCC)(CCCC)C(C(=O)OC)C(C(=O)OC)=C1SC(C(=O)OC)=C(C(=O)OC)S1 (configuration not stated)
TGI [57]: > 100 µM
TGI [1]: > 100 µM
TGI [3]: > 100 µM
TGI [4]: > 100 µM
TGI [5]: > 100 µM
TGI [6]: > 100 µM
TGI [7]: > 100 µM
TGI [8]: > 100 µM
TGI [58]: > 100 µM
TGI [9]: > 100 µM
TGI [10]: > 100 µM
TGI [11]: > 100 µM
TGI [13]: > 100 µM
TGI [14]: > 100 µM
TGI [15]: > 100 µM
TGI [16]: > 100 µM
TGI [59]: > 100 µM
TGI [17]: > 100 µM
TGI [18]: > 100 µM
TGI [19]: > 100 µM
TGI [20]: > 100 µM
TGI [21]: > 100 µM
TGI [22]: > 100 µM
TGI [23]: > 100 µM
TGI [24]: > 100 µM
TGI [25]: > 100 µM
TGI [26]: > 100 µM
TGI [27]: > 100 µM
TGI [28]: > 100 µM
TGI [30]: > 100 µM
TGI [31]: > 100 µM
TGI [32]: > 100 µM
TGI [33]: > 100 µM
TGI [35]: > 100 µM
TGI [36]: > 100 µM
TGI [37]: > 100 µM
TGI [38]: > 100 µM
TGI [39]: > 100 µM
TGI [40]: > 100 µM
TGI [41]: > 100 µM
TGI [42]: > 100 µM
TGI [44]: > 100 µM
TGI [45]: > 100 µM
TGI [46]: > 100 µM
TGI [47]: > 100 µM
TGI [49]: > 100 µM
TGI [50]: > 100 µM
TGI [52]: > 100 µM
TGI [53]: > 100 µM
TGI [55]: > 100 µM

Cc1nc2ccc(S(=O)(=O)Nc3ccccn3)cc2c(=O)n1NS(=O)(=O)c1ccccn1
TGI [57]: > 100 µM
TGI [1]: > 100 µM
TGI [2]: > 100 µM
TGI [3]: > 100 µM
TGI [4]: > 100 µM
TGI [5]: > 100 µM
TGI [6]: > 100 µM
TGI [7]: > 100 µM
TGI [8]: > 100 µM
TGI [58]: > 100 µM
TGI [9]: > 100 µM
TGI [10]: > 100 µM
TGI [11]: > 100 µM
TGI [12]: > 100 µM
TGI [14]: > 100 µM
TGI [15]: > 100 µM
TGI [16]: > 100 µM
TGI [59]: > 100 µM
TGI [17]: > 100 µM
TGI [18]: > 100 µM
TGI [19]: > 100 µM
TGI [20]: > 100 µM
TGI [21]: > 100 µM
TGI [22]: > 100 µM
TGI [23]: > 100 µM
TGI [24]: > 100 µM
TGI [25]: > 100 µM
TGI [26]: > 100 µM
TGI [27]: > 100 µM
TGI [28]: > 100 µM
TGI [29]: > 100 µM
TGI [30]: > 100 µM
TGI [31]: > 100 µM
TGI [32]: > 100 µM
TGI [33]: > 100 µM
TGI [34]: > 100 µM
TGI [35]: > 100 µM
TGI [36]: > 100 µM
TGI [37]: > 100 µM
TGI [38]: > 100 µM
TGI [39]: > 100 µM
TGI [40]: > 100 µM
TGI [41]: > 100 µM
TGI [42]: > 100 µM
TGI [43]: > 100 µM
TGI [44]: > 100 µM
TGI [45]: > 100 µM
TGI [46]: > 100 µM
TGI [47]: > 100 µM
TGI [48]: > 100 µM
TGI [49]: > 100 µM
TGI [50]: > 100 µM
TGI [51]: > 100 µM
TGI [52]: > 100 µM
TGI [53]: > 100 µM
TGI [54]: > 100 µM
TGI [55]: > 100 µM
TGI [56]: > 100 µM

CCOC(=O)C(C)c1nc2cc(F)c(N3CCOCC3)cc2[nH]c1=O (configuration not stated)
TGI [57]: > 100 µM
TGI [1]: > 100 µM
TGI [2]: > 100 µM
TGI [3]: > 100 µM
TGI [4]: > 100 µM
TGI [5]: > 100 µM
TGI [6]: > 100 µM
TGI [7]: > 100 µM
TGI [8]: > 100 µM
TGI [58]: > 100 µM
TGI [9]: > 100 µM
TGI [10]: > 100 µM
TGI [11]: > 100 µM
TGI [12]: > 100 µM
TGI [13]: > 100 µM
TGI [14]: > 100 µM
TGI [15]: > 100 µM
TGI [16]: > 100 µM
TGI [59]: > 100 µM
TGI [17]: > 100 µM
TGI [18]: > 100 µM
TGI [19]: > 100 µM
TGI [20]: > 100 µM
TGI [21]: > 100 µM
TGI [22]: > 100 µM
TGI [23]: > 100 µM
TGI [24]: > 100 µM
TGI [25]: > 100 µM
TGI [26]: > 100 µM
TGI [27]: > 100 µM
TGI [28]: > 100 µM
TGI [29]: > 100 µM
TGI [30]: > 100 µM
TGI [31]: > 100 µM
TGI [32]: > 100 µM
TGI [33]: > 100 µM
TGI [34]: > 100 µM
TGI [35]: > 100 µM
TGI [36]: > 100 µM
TGI [37]: > 100 µM
TGI [38]: > 100 µM
TGI [39]: > 100 µM
TGI [40]: > 100 µM
TGI [41]: > 100 µM
TGI [42]: > 100 µM
TGI [44]: > 100 µM
TGI [45]: > 100 µM
TGI [46]: > 100 µM
TGI [47]: > 100 µM
TGI [48]: > 100 µM
TGI [49]: > 100 µM
TGI [50]: > 100 µM
TGI [51]: > 100 µM
TGI [52]: > 100 µM
TGI [53]: > 100 µM
TGI [54]: > 100 µM
TGI [56]: > 100 µM

Source: PubChem BioAssay (NCI)
